Assay results: patent US8697858B2 (priority 2009, dated 2014)
l = locked nucleic acid (LNA); d = 2'-deoxy (DNA)

Tests used:
[1] = test system: H1N1 (strain PR8); format: cell-based, murine
[2] = test system: M2 protein; format: cell-based, H1N1 (strain PR8)

Substance	relative effectiveness of the 2′OMe compounds (viral HA RNA; also observed for M2 protein) [1]	reduction in viral HA RNA levels [1]	effectiveness in the M2 protein expression assay [2]	effectiveness in the viral HA RNA assay [1]
2′OMe-AUG2: 2′OMe phosphorothioate oligomer, SEQ ID NO: 20 (ACCTCGGTTAGAAGACTCATCTTTC; all 2'-O-methyl, all phosphorothioate, T or U not given here)	most effective	–	–	–
LNA-AUG12: LNA (capitals)/DNA CgGtTaGaAgAcTcAt (CGGTTAGAAGACTCAT; sugars from the 5' end ldldldldldldldld, backbone and methylation of C not given here)	–	approximately 1.5 log	–	–
LNA-AUG10: LNA (capitals)/DNA gAcTcAtCtT (GACTCATCTT; sugars from the 5' end dldldldldl, backbone and methylation of C not given here)	–	–	least effective	least effective
LNA-AUG1: LNA (capitals)/DNA CgGtTaGaAgAcTcAtCtTt (CGGTTAGAAGACTCATCTTT; sugars from the 5' end ldldldldldldldldldld, backbone and methylation of C not given here)	–	approximately 3 log	most effective	–
